Source: the NIST ThermoML archive (doi:10.1007/s10765-007-0186-y)

Experiment: molar heat capacity at constant pressure
Details: Gas, Flow calorimetry

CC(F)(F)F [1,1,1-trifluoroethane]
Details	molar heat capacity at constant pressure [J/K/mol]
311.15 K, 1600 kPa	120.18
317.15 K, 1800 kPa	125.89
318.15 K, 1600 kPa	111.77
318.15 K, 2000 kPa	139.51
324.15 K, 2200 kPa	145.31
326.15 K, 2400 kPa	161.69
327.15 K, 2400 kPa	160.77
338.15 K, 2400 kPa	130.6
341.15 K, 2200 kPa	117.24
343.15 K, 2400 kPa	124.8
